Measured values taken from PubChem BioAssay (NCI).
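1) Cells in 96-well plates. 2) Compound, 48 h, 5 concentrations. 3) Linear interpolation between surrounding doses. 4) Unreached endpoint = highest concentration. GI50 is the concentration that inhibits growth by half. TGI marks complete inhibition of growth.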

What was measured:
Test in all cases: NCI-60 cell line screen, 48 h
HOP-62 NSCLC = tested on: HOP-62 NSCLC
HT29 colon = tested on: HT29 colon
IGROV1 ovarian = tested on: IGROV1 ovarian
K-562 leukemia = tested on: K-562 leukemia
M14 melanoma = tested on: M14 melanoma
NCI-H522 lung = tested on: NCI-H522 lung
OVCAR-3 ovarian = tested on: OVCAR-3 ovarian
OVCAR-4 ovarian = tested on: OVCAR-4 ovarian
PC-3 prostate = tested on: PC-3 prostate
SK-MEL-28 melanoma = tested on: SK-MEL-28 melanoma

## CN1CCN(C(=O)[C@@]2(C)CC[C@]3(C)CC[C@]4(C)C(=CC[C@@H]5[C@@]6(C)CCC(=O)NC(C)(C)[C@@H]6CC[C@]54C)[C@@H]3C2)CC1
HOP-62 NSCLC
  GI50: 1.56 µM
  TGI: 3.13 µM
HT29 colon
  GI50: 1.5 µM
  TGI: 3.35 µM
IGROV1 ovarian
  GI50: 1.77 µM
  TGI: 3.77 µM
K-562 leukemia
  GI50: 1.07 µM
  TGI: 3.02 µM
M14 melanoma
  GI50: 1.69 µM
  TGI: 3.38 µM
NCI-H522 lung
  GI50: 1.78 µM
  TGI: 3.75 µM
OVCAR-3 ovarian
  GI50: 2.01 µM
  TGI: 4.7 µM
OVCAR-4 ovarian
  GI50: 2.94 µM
  TGI: 13 µM
PC-3 prostate
  GI50: 0.813 µM
  TGI: 2.42 µM
SK-MEL-28 melanoma
  GI50: 1.56 µM
  TGI: 2.97 µM

## CCc1ccccc1NC(=O)C(C#N)C1=C(Cl)C(=O)c2ccccc2C1=O (stereo not given)
HOP-62 NSCLC
  TGI: 43.4 µM
HT29 colon
  TGI: 37.9 µM
IGROV1 ovarian
  TGI: 32.8 µM
K-562 leukemia
  TGI: > 100 µM
M14 melanoma
  TGI: 21.8 µM
NCI-H522 lung
  TGI: 29.7 µM
OVCAR-3 ovarian
  TGI: > 100 µM
OVCAR-4 ovarian
  TGI: 27.6 µM
PC-3 prostate
  TGI: 33 µM
SK-MEL-28 melanoma
  TGI: 36.4 µM

## CC1(C)CC(=O)C=C(/C=C/Sc2c(Cl)c(Cl)nc(Cl)c2Cl)C1
HOP-62 NSCLC
  GI50: 12.9 µM
  TGI: 27.8 µM
HT29 colon
  GI50: 16.5 µM
  TGI: 47.1 µM
IGROV1 ovarian
  GI50: 4.75 µM
  TGI: 84.9 µM
K-562 leukemia
  GI50: 8.79 µM
  TGI: > 100 µM
M14 melanoma
  GI50: 11.7 µM
  TGI: 24.2 µM
NCI-H522 lung
  GI50: 6.17 µM
  TGI: 37 µM
OVCAR-3 ovarian
  GI50: 2.6 µM
  TGI: 8.29 µM
OVCAR-4 ovarian
  GI50: 20.3 µM
  TGI: 57.9 µM
PC-3 prostate
  GI50: 3.54 µM
  TGI: 14.1 µM
SK-MEL-28 melanoma
  GI50: 15.5 µM
  TGI: 31.9 µM

## CCN1CCC(CC(=O)Nc2n[nH]c3nnc(-c4cccc(F)c4F)cc23)CC1
HOP-62 NSCLC
  GI50: > 25 µM
  TGI: > 25 µM
HT29 colon
  GI50: 12.4 µM
  TGI: > 25 µM
IGROV1 ovarian
  GI50: > 25 µM
  TGI: > 25 µM
K-562 leukemia
  GI50: > 25 µM
  TGI: > 25 µM
M14 melanoma
  GI50: > 25 µM
  TGI: > 25 µM
NCI-H522 lung
  GI50: > 25 µM
  TGI: > 25 µM
OVCAR-3 ovarian
  GI50: 3.65 µM
  TGI: > 25 µM
OVCAR-4 ovarian
  GI50: > 25 µM
  TGI: > 25 µM
PC-3 prostate
  GI50: > 25 µM
  TGI: > 25 µM
SK-MEL-28 melanoma
  GI50: > 25 µM
  TGI: > 25 µM
